From ChEMBL document CHEMBL5096184, “Structure activity relationship in β-carboline derived anti-malarial agents” (Eur J Med Chem, 2021)
Values after ≈ are worked out from the molar mass of the structure shown. One block for each compound: values may come before it.

How the values were obtained:
Plasmodium falciparum [1] = test: Antiplasmodial activity against chloroquine sensitive Plasmodium falciparum FCA 20/Ghana; type: functional, organism-based; details: Plasmodium falciparum, FCA 20/Ghana
Plasmodium falciparum [2] = test: Antiplasmodial activity against chloroquine sensitive Plasmodium falciparum FCB1-R/Colombia; type: functional, organism-based
Plasmodium falciparum [3] = test: Antiplasmodial activity against chloroquine sensitive Plasmodium falciparum W2/Indochina; type: functional, organism-based; details: Plasmodium falciparum, W2/Indochina
Plasmodium falciparum [4] = test: Antimalarial activity against Plasmodium falciparum K1; type: functional, organism-based
Plasmodium falciparum [5] = test: Antimalarial activity against multi drug resistant Plasmodium falciparum W2; type: functional, organism-based
[6] = Cytotoxicity against human MRC5 cells; type: toxicity, cell-based
Plasmodium falciparum [7] = test: Antimalarial activity against Plasmodium falciparum W2 (MRA-157) incubated for 72 hrs; type: functional, organism-based
Plasmodium falciparum [8] = test: Antimalarial activity against chloroquine-resistant Plasmodium falciparum; type: functional, organism-based
Plasmodium berghei = test: Antiplasmodial activity against Plasmodium berghei assessed as reduction in parasitemia; type: functional, organism-based
Plasmodium falciparum [9] = test: Antimalarial activity against chloroquine sensitive Plasmodium falciparum 3D7; type: functional, organism-based
Plasmodium falciparum [10] = test: Antimalarial activity against Plasmodium falciparum D6; type: functional, organism-based
Plasmodium falciparum [11] = test: Antimalarial activity against chloroquine sensitive Plasmodium falciparum K1; type: functional, organism-based

SMILES: C/C=C1\CN2CCc3c([nH]c4ccccc34)[C@@H]2C[C@@H]1Cc1nccc2c1[nH]c1ccccc12
IC50 (Plasmodium falciparum [1]): 1520 nM
IC50 (Plasmodium falciparum [2]): < 2000 nM
IC50 (Plasmodium falciparum [3]): 594 nM

SMILES: COc1ccc(C2NCCc3c2[nH]c2ccccc32)cc1 (stereo not drawn)
IC50 (Plasmodium falciparum [5]): 700 nM

SMILES: Cn1c2c(c3ccccc31)C[C@@H]1C(=O)N([C@@H]3CCN(Cc4ccccc4)C3)CC(=O)N1[C@@H]2c1ccc2c(c1)OCO2
IC50 [6]: > 64000 nM

SMILES: c1ccc(C2NCCc3c2[nH]c2ccccc32)cc1 (stereo not drawn)
IC50 (Plasmodium falciparum [5]): 8100 nM

SMILES: c1ccc2c(-c3nccc4c3[nH]c3ccccc34)c[nH]c2c1
IC50 (Plasmodium falciparum [8]): 14400 nM

SMILES: COc1ccc2[nH]cc(-c3nccc4c3[nH]c3ccc(OC)cc34)c2c1
IC50 (Plasmodium falciparum [8]): 4700 nM

SMILES: COC(=O)[C@@H]1Cc2c([nH]c3ccccc23)[C@H](c2cccs2)N1
IC50 (Plasmodium berghei): < 5 µg/mL

SMILES: CCN(CC)CCCNc1nccc2c1[nH]c1ccccc12
IC50 (Plasmodium falciparum [4]): 640 nM

SMILES: c1ccc2c(c1)[nH]c1c(N3CCOCC3)nccc12
IC50 (Plasmodium falciparum [4]): 4590 nM

SMILES: CC1NCCc2c1[nH]c1ccc(Cl)cc21 (stereo not drawn)
IC50 (Plasmodium falciparum [7]): 4200 nM

SMILES: Clc1ccc(C2NCCc3c2[nH]c2ccccc32)cc1 (stereo not drawn)
IC50 (Plasmodium falciparum [7]): 4800 nM

SMILES: COC(=O)c1cc2c3c(c1)c1ccccc1n3C=C(C)OC2
IC50 (Plasmodium falciparum [9]): > 5000 nM

SMILES: Cc1ccc(C)c(C2NCCc3c2[nH]c2ccccc32)c1 (stereo not drawn)
IC50 (Plasmodium falciparum [5]): 28900 nM

SMILES: C=C(C)CC1OC(C)=Cn2c3ccccc3c3cc(C(=O)OC)cc1c32 (stereo not drawn)
IC50 (Plasmodium falciparum [9]): > 5000 nM

SMILES: CC[C@H]1CN2CCc3c([nH]c4ccccc34)[C@@H]2C[C@@H]1C[C@H]1NCCc2c1[nH]c1ccccc21
IC50 (Plasmodium falciparum [1]): 118 nM
IC50 (Plasmodium falciparum [3]): 492 nM

SMILES: C=C[C@H]1CN2CCc3c([nH]c4ccccc34)[C@@H]2C[C@@H]1CC1c2[nH]c3ccccc3c2CCN1C (stereo partly drawn)
IC50 (Plasmodium falciparum [1]): 2500 nM
IC50 (Plasmodium falciparum [2]): 2000 nM
IC50 (Plasmodium falciparum [3]): 2360 nM

SMILES: CCN(CC)CCCNc1nccc2c1[nH]c1ccc(Cl)cc12
IC50 (Plasmodium falciparum [4]): 1080 nM

SMILES: COC(=O)c1cc2c3c(c1)c1ccccc1n3C=C(C)OC2CC=C(C)C (stereo not drawn)
IC50 (Plasmodium falciparum [11]): > 5000 nM
IC50 (Plasmodium falciparum [9]): > 5000 nM

SMILES: CC1NCCc2c1[nH]c1ccc(Br)cc21 (stereo not drawn)
IC50 (Plasmodium falciparum [7]): 5700 nM

SMILES: Cc1ccc(C2NCCc3c2[nH]c2ccccc32)c(C)c1 (stereo not drawn)
IC50 (Plasmodium falciparum [5]): 25300 nM

SMILES: Oc1ccc2[nH]cc(-c3nccc4c3[nH]c3ccc(O)cc34)c2c1
IC50 (Plasmodium falciparum [8]): 11000 nM

SMILES: C=C(CC1OC(C)=Cn2c3ccccc3c3cc(C(=O)OC)cc1c32)C(=O)OC (stereo not drawn)
IC50 (Plasmodium falciparum [11]): 720 nM
IC50 (Plasmodium falciparum [9]): 570 nM

SMILES: C=C[C@H]1CN2CCc3c([nH]c4ccc(O)cc34)[C@@H]2C[C@@H]1CC1c2[nH]c3ccccc3c2CCN1C (stereo partly drawn)
IC50 (Plasmodium falciparum [1]): 480 nM
IC50 (Plasmodium falciparum [3]): 160 nM

The next lines start with the values.

IC50 (Plasmodium falciparum [4]): 2400 nM
SMILES: OCCNc1nccc2c1[nH]c1ccccc12

IC50 (Plasmodium falciparum [7]): 25100 nM
SMILES: COc1cccc(C2NCCc3c2[nH]c2ccccc32)c1 (stereo not drawn)

IC50 (Plasmodium falciparum [7]): 13600 nM
SMILES: O=[N+]([O-])c1cccc(C2NCCc3c2[nH]c2ccccc32)c1 (stereo not drawn)

IC50 (Plasmodium falciparum [7]): > 81100 nM
SMILES: COc1ccc(C2NCCc3c2[nH]c2ccccc32)cc1OC (stereo not drawn)

IC50 (Plasmodium berghei): < 5 µg/mL
SMILES: COC(=O)[C@@H]1Cc2c([nH]c3ccccc23)[C@@H](c2ccc3c(c2)OCO3)N1

IC50 (Plasmodium falciparum [4]): 450 nM
SMILES: CN(C)CCCNc1nccc2c1[nH]c1ccccc12

IC50 (Plasmodium falciparum [4]): 410 nM
SMILES: CCN(CC)C1CCN(c2nccc3c2[nH]c2ccccc23)CC1

IC50 (Plasmodium falciparum [4]): 350 nM
SMILES: c1ccc2c(c1)[nH]c1c(N3CCC(N4CCCCCC4)CC3)nccc12

IC50 (Plasmodium falciparum [4]): 1200 nM
SMILES: c1ccc2c(c1)[nH]c1c(N3CCCCC3)nccc12

IC50 (Plasmodium berghei): < 5 µg/mL
SMILES: COC(=O)[C@@H]1Cc2c([nH]c3ccccc23)[C@H](c2cccnc2)N1

IC50 (Plasmodium falciparum [4]): 450 nM
SMILES: c1ccc2c(c1)[nH]c1c(N3CCC(N4CCCC4)CC3)nccc12

IC50 (Plasmodium falciparum [4]): 390 nM
SMILES: c1ccc2c(c1)[nH]c1c(N3CCC(N4CCCCC4)CC3)nccc12

IC50 (Plasmodium berghei): < 5 µg/mL
SMILES: CCCCCC[C@H]1N[C@H](C(=O)OC)Cc2c1[nH]c1ccccc21

IC50 (Plasmodium falciparum [4]): 3400 nM
SMILES: OC1CCCN(c2nccc3c2[nH]c2ccccc23)C1 (stereo not drawn)

IC50 (Plasmodium berghei): < 5 µg/mL
SMILES: CCCCCC[C@@H]1N[C@H](C(=O)OC)Cc2c1[nH]c1ccccc21

IC50 (Plasmodium berghei): < 5 µg/mL
SMILES: COC(=O)[C@@H]1Cc2c([nH]c3ccccc23)[C@@H](c2cccs2)N1

IC50 (Plasmodium falciparum [4]): 620 nM
SMILES: CN1CCN(c2nccc3c2[nH]c2ccccc23)CC1

IC50 (Plasmodium berghei): < 5 µg/mL
SMILES: COC(=O)[C@@H]1Cc2c([nH]c3ccccc23)[C@@H](c2cccnc2)N1

IC50 (Plasmodium berghei): < 5 µg/mL
SMILES: COC(=O)[C@@H]1Cc2c([nH]c3ccccc23)[C@H](c2ccc3c(c2)OCO3)N1

IC50 (Plasmodium falciparum [10]): 0.082 µg/mL (≈ 0.212 µM)
SMILES: O[C@]12C=C[C@@H]3CCN(CCCCCCCC1)C[C@@]31C[C@@H]3CCCCCCN3[C@H]12

IC50 (Plasmodium falciparum [4]): 360 nM
SMILES: CCN(CC)CCCNc1nccc2c1[nH]c1ccc(F)cc12

IC50 (Plasmodium falciparum [10]): 0.017 µg/mL (≈ 0.041 µM)
SMILES: [O-][N+]12CCCC/C=C\[C@H]1C[C@]13C[N@@+]4([O-])CCCC/C=C\CC[C@](O)(C=C[C@@H]1CC4)[C@@H]32 (stereo partly drawn)
